How the values were obtained:
[1] = test system: BFTC-909 (Kidney Carcinoma); experiment: Bliss excess, mean over the matrix (fraction); higher = more synergy
Method in brief: (§1)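 After 24 hours at 37°C and 5% CO2 in 1536-well plates, cells in DMEM/F12 or RPMI plus 10% FBS received two-drug dose matrices for 72 hours. Viability came from CellTiter-Glo 2.0 luminescence and was scaled as inhibition, anchored at 0 by vehicle wells and at 1 by blank wells. Combination Emax is taken as the second-highest inhibition in the matrix, and Bliss excess as the observed combination effect less EA + EB − EA·EB, with EA and EB the single-agent effects.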

BE2-M17 (Neuroblastoma) [2] = experiment: as above
Method in brief: as §1

[3] = test system: KMRC-20 (Kidney Carcinoma); experiment: as above
Method in brief: as §1

[4] = test system: CAL-33 (Oral Cavity Carcinoma); experiment: as above
Method in brief: as §1

[5] = test system: OV-56 (Ovarian Carcinoma); experiment: as above
Method in brief: as §1

[6] = test system: HuH-7 (Hepatocellular Carcinoma); experiment: as above
Method in brief: as §1

[7] = test system: L-428 (Hodgkin's Lymphoma); experiment: as above
Method in brief: as §1

[8] = test system: NCI-H1568 (Lung Adenocarcinoma); experiment: as above
Method in brief: as §1

NCI-H2052 (Mesothelioma) [9] = experiment: as above
Method in brief: as §1

[10] = test system: SW1573 (Lung Adenocarcinoma); experiment: as above
Method in brief: as §1

[11] = test system: Detroit562 (Head and Neck Carcinoma); experiment: as above
Method in brief: as §1

[12] = test system: LCLC-97TM1 (Non-Small Cell Lung Carcinoma); experiment: as above
Method in brief: as §1

[13] = test system: FTC-133 (Thyroid Gland Carcinoma); experiment: as above
Method in brief: as §1

[14] = test system: NUGC-4 (Gastric Carcinoma); experiment: as above
Method in brief: as §1

NCI-H2722 (Mesothelioma) [15] = experiment: as above
Method in brief: as §1

[16] = test system: NCI-H209 (Small Cell Lung Carcinoma); experiment: as above
Method in brief: as §1

[17] = test system: Hs-746T (Gastric Carcinoma); experiment: as above
Method in brief: as §1

BPH-1 (Non-Cancerous) [18] = experiment: as above
Method in brief: as §1

[19] = test system: HeLa (Cervical Carcinoma); experiment: as above
Method in brief: as §1

[20] = test system: MHH-CALL-2 (B-Lymphoblastic Leukemia); experiment: as above
Method in brief: as §1

[21] = test system: ALL-PO (B-Lymphoblastic Leukemia); experiment: as above
Method in brief: as §1

[22] = test system: OE21 (Esophageal Squamous Cell Carcinoma); experiment: as above
Method in brief: as §1

[23] = test system: BFTC-909 (Kidney Carcinoma); experiment: combination Emax (second highest fraction inhibited in the dose matrix, 72 h); higher = more inhibition; extreme values may be limits of the assay
Method in brief: as §1

BE2-M17 (Neuroblastoma) [24] = experiment: as above
Method in brief: as §1

[25] = test system: KMRC-20 (Kidney Carcinoma); experiment: as above
Method in brief: as §1

[26] = test system: CAL-33 (Oral Cavity Carcinoma); experiment: as above
Method in brief: as §1

[27] = test system: OV-56 (Ovarian Carcinoma); experiment: as above
Method in brief: as §1

[28] = test system: HuH-7 (Hepatocellular Carcinoma); experiment: as above
Method in brief: as §1

[29] = test system: L-428 (Hodgkin's Lymphoma); experiment: as above
Method in brief: as §1

[30] = test system: NCI-H1568 (Lung Adenocarcinoma); experiment: as above
Method in brief: as §1

NCI-H2052 (Mesothelioma) [31] = experiment: as above
Method in brief: as §1

[32] = test system: SW1573 (Lung Adenocarcinoma); experiment: as above
Method in brief: as §1

[33] = test system: Detroit562 (Head and Neck Carcinoma); experiment: as above
Method in brief: as §1

[34] = test system: LCLC-97TM1 (Non-Small Cell Lung Carcinoma); experiment: as above
Method in brief: as §1

[35] = test system: FTC-133 (Thyroid Gland Carcinoma); experiment: as above
Method in brief: as §1

[36] = test system: NUGC-4 (Gastric Carcinoma); experiment: as above
Method in brief: as §1

NCI-H2722 (Mesothelioma) [37] = experiment: as above
Method in brief: as §1

[38] = test system: NCI-H209 (Small Cell Lung Carcinoma); experiment: as above
Method in brief: as §1

[39] = test system: Hs-746T (Gastric Carcinoma); experiment: as above
Method in brief: as §1

BPH-1 (Non-Cancerous) [40] = experiment: as above
Method in brief: as §1

[41] = test system: HeLa (Cervical Carcinoma); experiment: as above
Method in brief: as §1

[42] = test system: MHH-CALL-2 (B-Lymphoblastic Leukemia); experiment: as above
Method in brief: as §1

[43] = test system: ALL-PO (B-Lymphoblastic Leukemia); experiment: as above
Method in brief: as §1

[44] = test system: OE21 (Esophageal Squamous Cell Carcinoma); experiment: as above
Method in brief: as §1
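Throughout, for Bliss excess, mean over the matrix: after 72 h of two-drug dosing.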

SMILES: C[C@@H](c1ccc2nccn2c1)n1nnc2ncc(-c3cnn(C)c3)nc21 [Savolitinib] + CN(CC[C@H](CSC1=CC=CC=C1)NC2=C(C=C(C=C2)S(=O)(=O)NC(=O)C3=CC=C(C=C3)N4CCC(CC4)[C@H](C5=CC=CC=C5C6=CC=C(C=C6)Cl)O)S(=O)(=O)C(F)(F)F)CCO [AZD4320] (first compound max 1 µM, 7x7, partner max 1 µM)
- Bliss excess [1]: -0.0417
- Bliss excess (BE2-M17 (Neuroblastoma) [2]): -0.0337
- Bliss excess [3]: -0.0048
- Bliss excess [4]: -0.0104
- Bliss excess [5]: -0.0078
- Bliss excess [6]: -0.0064
- Bliss excess [7]: -0.0726
- Bliss excess [8]: -0.0571
- Bliss excess (NCI-H2052 (Mesothelioma) [9]): -0.0147
- Bliss excess [10]: -0.0657
- Bliss excess [11]: -0.0189
- Bliss excess [12]: -0.0311
- Bliss excess [13]: -0.056
- Bliss excess [14]: -0.0363
- Bliss excess (NCI-H2722 (Mesothelioma) [15]): -0.0433
- Bliss excess [16]: -0.0172
- Bliss excess [17]: -0.0049
- Bliss excess (BPH-1 (Non-Cancerous) [18]): -0.0802
- Bliss excess [19]: -0.0391
- Bliss excess [20]: -0.0252
- Bliss excess [21]: -0.0307
- Bliss excess [22]: -0.043
- combination Emax [23]: 0.29
- combination Emax (BE2-M17 (Neuroblastoma) [24]): 0.305
- combination Emax [25]: 0.184
- combination Emax [26]: 0.222
- combination Emax [27]: 0.212
- combination Emax [28]: 0.265
- combination Emax [29]: 0.773
- combination Emax [30]: 0.256
- combination Emax (NCI-H2052 (Mesothelioma) [31]): 0.225
- combination Emax [32]: 0.239
- combination Emax [33]: 0.237
- combination Emax [34]: 0.101
- combination Emax [35]: 0.546
- combination Emax [36]: 0.262
- combination Emax (NCI-H2722 (Mesothelioma) [37]): 0.308
- combination Emax [38]: 1
- combination Emax [39]: 0.753
- combination Emax (BPH-1 (Non-Cancerous) [40]): 0.346
- combination Emax [41]: 0.13
- combination Emax [42]: 0.454
- combination Emax [43]: 0.989
- combination Emax [44]: 0.101

— the supplement of paper PMC11061612
